Measured values published in ChEMBL document CHEMBL2016499, “Monoenomycin: A Simplified Trienomycin A Analogue that Manifests Anticancer Activity” (ACS Med Chem Lett, 2011).

Columns and labels:
HeLa = assay: Cytotoxicity against human HeLa cells at 72 hrs by MTS assay; type: functional, cell-based
MCF7 = assay: Cytotoxicity against human MCF7 cells at 72 hrs by MTS assay; type: functional, cell-based; conditions: MCF7, 72 h

Structure (SMILES) | IC50 (HeLa) [µM] | IC50 (MCF7) [µM]
COc1cc2cc(c1)NC(=O)CCCCCCC=CC[C@H](OC(=O)[C@@H](Cc1ccccc1)NC(=O)C1CCCCC1)CC/C(C)=C/CC2 (mixture of isomers) | 4.6 | 5.1
COc1cc2cc(c1)NC(=O)CCCCCCC=CC[C@H](OC(=O)[C@@H](C)NC(C)=O)CC/C(C)=C/CC2 (mixture of isomers) | 2.5 | 1.7
COc1cc2cc(c1)NC(=O)CCCCCCC=CC[C@H](OC(=O)[C@@H](C)NC(=O)C1CCCC1)CC/C(C)=C/CC2 (mixture of isomers) | 1.6 | 0.72
COc1cc2cc(c1)NC(=O)CCCCCCC=CC[C@H](OC(=O)[C@@H](CC(C)C)NC(=O)C1CCCCC1)CC/C(C)=C/CC2 (mixture of isomers) | > 100 | > 100
CO[C@H]1/C=C/C=C/C=C/C[C@H](OC(=O)[C@@H](C)NC(=O)C2CCCCC2)[C@H](C)[C@@H](O)/C(C)=C\CCc2cc(O)cc(c2)NC(=O)C1 [TRIENOMYCIN A] | 0.128 | 
COc1cc2cc(c1)NC(=O)CCCCCCC=CC[C@H](OC(=O)[C@H](NC(=O)C1CCCCC1)C(C)C)CC/C(C)=C/CC2 (mixture of isomers) | 9.1 | 1
COc1cc2cc(c1)NC(=O)CCCCCCC=CC[C@H](OC(=O)CNC(=O)C1CCCCC1)CC/C(C)=C/CC2 (mixture of isomers) | 13 | 12
COC1=C2C[C@@H](C)C[C@H](OC)[C@H](O)[C@@H](C)/C=C(\C)[C@H](OC(N)=O)[C@@H](OC)/C=C\C=C(/C)C(=O)NC(=CC1=O)C2=O [GELDANAMYCIN] | > 5 | 0.053
COc1cc2cc(c1)NC(=O)CCCCCCC=CC[C@H](OC(=O)[C@H](C)NC(=O)C1CCCCC1)CC/C(C)=C/CC2 (mixture of isomers) | 1.7 | 1.9
COc1cc2cc(c1)NC(=O)CCCCCCC=CC[C@H](OC(=O)[C@@H](C)NC(=O)C1CCCCC1)CC/C(C)=C/CC2 (mixture of isomers) | 0.47 | 0.53
COc1cc2cc(c1)NC(=O)CCCCCCC=CC[C@H](OC(=O)[C@@H](C)NC(=O)C1CCCCC1)CC/C(C)=C\CC2 (mixture of isomers) | > 100 | > 100
